The source of these data is US20090280196A1, “CISSUS […] PLANT EXTRACTS FOR TREATING OSTEOPOROSIS AND THE EXTRACTION PROCESS THEREOF” (priority 2006, published 2009).

Structures are written as SMILES.

Assay [1] has as its system osteoclasts (osteoclastic bone resorption). The assay is described as follows: Bone resorption hit screening, CTX release from osteoclasts on bovine bone slices. The assay is classed as cell-based, human. As to conditions: positive control, V-ATPase blocker, concentration not given. The text has this: Studies have determined that osteoclasts are largely derived from CD14 positive monocytes (J. Haemotol, 1999 July; 106(1):167-70). Clonal analysis of haematopoietic cells by surface phenotypes has been used to further identify osteoclast precursor by characterizing osteoclast like cells distinct from other haematopoietic progenitors (Lee et. al; 1992b Muguruma & Lee; 1988). Surface phenotype analysis has shown that human osteoclasts are derived from CD14 monocytes (Massey & Flanagan, 1999). CD 14 marker is strongly expressed on monocytes, the putative osteoclast precursor in peripheral blood and CD14 positive monocytes have been selected for osteoclastogenesis. (Clin. Sci (Lond) 2000, August, 99(2): 133-40).
The osteoclasts were isolated as CD14 positive monocytes and differentiated into osteoclasts for 10-12 days. Hereafter, the osteoclasts were lifted by trypsin, counted and seeded on bovine bone slices at a density of 40000 cells per bone slice. The osteoclasts were seeded on the bone slices for one day before the plant extracts were added. The osteoclasts were hereby allowed to attach and initiate resorption. […]
The bone resorption experiment was ended after 5 days of incubation and the cell viability was measured by the use of the AlamarBlue assay. Bone resorption was evaluated as the determination of the CTX release.

The conditions of assay [2]: cited from earlier work.

Regarding `CO/C1=C\C(C)=C\[C@@H](C)[C@@H](O)[C@@H](C)C/C(C)=C/C=C/[C@H](OC)[C@@H]([C@@H](C)[C@@H](O)[C@H](C)[C@@]2(O)C[C@@H](O)[C@H](C)[C@@H](C(C)C)O2)OC1=O` [Bafilomycin], the “inhibition of osteoclastic bone resorption compared to DMSO” value in assay [1] is “approximately 80%”. With `CC[C@H](C)[C@H](NC(=O)[C@H](CCC(=O)O)NC(=O)[C@H](CO)NC(=O)[C@@H](NC(=O)[C@@H](N)CO)C(C)C)C(=O)N[C@@H](CCC(N)=O)C(=O)N[C@@H](CC(C)C)C(=O)N[C@@H](CCSC)C(=O)N[C@@H](Cc1cnc[nH]1)C(=O)N[C@@H](CC(N)=O)C(=O)N[C@@H](CC(C)C)C(=O)NCC(=O)N[C@@H](CCCCN)C(=O)N[C@@H](Cc1cnc[nH]1)C(=O)N[C@@H](CC(C)C)C(=O)N[C@@H](CC(N)=O)C(=O)N[C@@H](CO)C(=O)N[C@@H](CCSC)C(=O)N[C@@H](CCC(=O)O)C(=O)N[C@@H](CCCN=C(N)N)C(=O)N[C@H](C(=O)N[C@@H](CCC(=O)O)C(=O)N[C@@H](Cc1c[nH]c2ccccc12)C(=O)N[C@@H](CC(C)C)C(=O)N[C@@H](CCCN=C(N)N)C(=O)N[C@@H](CCCCN)C(=O)N[C@@H](CCCCN)C(=O)N[C@@H](CC(C)C)C(=O)N[C@@H](CCC(N)=O)C(=O)N[C@@H](CC(=O)O)C(=O)N[C@H](C(=O)N[C@@H](Cc1cnc[nH]1)C(=O)N[C@@H](CC(N)=O)C(=O)N[C@@H](Cc1ccccc1)C(=O)O)C(C)C)C(C)C` [teriparatide], in assay [2] (in 18 months, once daily subcutaneous injection), the “increase of bone mineral density in the spine” value was at most 13%. Moreover, the “reduction of the risk of fracture” value in assay [2] (patients) is listed as at most 90%.
